According to US20080009546A1 (Chevron U.S.A. Inc., priority 2005, published 2008):
Like-named read-outs stand apart in the source and are kept apart here.

Biological target: NMDA receptor
Experiment: [3H]MK-801 binding assay, NMDA receptors in guinea pig brain membranes
Procedure: Hartley guinea pigs were sacrificed, and their brains were quickly removed and weighed. The brains then were homogenized in 50 mM Tris HCl buffer, pH 7.7, using a Polytron homogenizer. The homogenate was centrifuged at 40,000×g for 15 min, rehomogenized, and centrifuged again. The final pellet was resuspended in Tris-HCl, pH 7.7, at a final concentration of 6.67 mg original wet weight of tissue/ml. […] The samples were then filtered through glass fiber filters on a Tomtec cell harvester. The filters were washed 3 times with 3 ml of cold buffer. Filters were dried overnight and counted next day on a Wallac Betaplate Reader.
The binding experiments were conducted as follows. […] For each compound, graphs were prepared containing individual competition curves obtained for that compound. IC50 values and Hill coefficients were calculated using the program Prism. Ki values were calculated using the Chang Prusoff transformation: Ki=IC50/(1+L/Kd)
where L is radioligand concentration and Kd is the binding affinity of the radioligand, as determined previously by saturation analysis. […] In each experiment, one standard compound was simultaneously run on each 96 well plate.

CC12CC3CC(C)(C1)CC(N)(C3)C2 [memantine, 1-amino-3,5-dimethyladamantane, reference compound]
Ki ([3H]MK-801 (1 nM), guinea pig brain membrane preparation, read-out: Ki (binding affinity)): 0.73 µM | Relative affinity (compared to that of Memantine): 1 ^ | Ki (standard compounds at the NMDA site (Table 27), read-out: Ki): 0.733 ± 0.13 µM
